Each structure is given as a SMILES string. Several values for one entry are separate records, joined by “and”; a condition that tells them apart may be missing. Equal entries are not always repeated. Where two headings read alike, the source gives them in different places. A value given as a limit tells only on which side of the number the result lay.

For assay [1], the system named is Acinetobacter spp. NT3-1 – tet(X3). The assay can be described thus: microbe, parasite or virus in culture. The assay is classed as cell-based. The conditions noted are these: for Antibiotic MIC: alone. The protocol:
(§1) MIC tests and checkerboard assays were performed in U-bottom, 96-well microtiter plates using a modified broth microdilution protocol following CLSI guidelines. Cation-adjusted Mueller-Hinton Broth (CAMHB) was prepared fresh on the day of testing.[74] In brief, assays were set up in a total volume of 100 μL per well and titrations comprised seven 2-fold dilutions of inhibitors and ten 2-fold dilutions of tigecycline in CAMHB. Bacterial colonies were selected from an overnight culture on MHA plates (supplemented with 0.2%w/vL-arabinose for E. coli TOP10 containing pBAD-TOPO-Tet(X4)) and were suspended in 0.9% saline solution to achieve a 0.5 McFarland standard. A 100 μL aliquot of this suspension was then diluted into 9.9 mL of CAMHB to yield approximately 1.5 × 10^6 cfu mL^−1. 50 μL of the suspension was then added to each well of a microtiter plates. Plates were incubated at 37 °C for 18 h. At least 2 replicates were conducted for each combination. E. coli TOP10 + pBAD-TOPO-Tet(X4) cells were grown in the absence and presence of 0.2%w/vL-arabinose. Analysis of the MIC and checkerboard results were carried out by visual inspection of growth, with and without resazurin dye, an oxidation–reduction indicator.[75] As a measure of synergy, fractional inhibitory concentration index (FICI) was calculated as FICA + FICB, where FICA and FICB are the MICcombination/MICalone for each agent, respectively.[76] Results were interpreted as follows: synergistic (<0.5), indifferent (1.0–4.0) or antagonistic (>4.0).[64] In cases where the MIC exceeded or was below the measured range, the borderline value was taken to calculate the FIC index.

Assay [2] deals with Salmonella enterica T-2a – tet(X4). Briefly: microbe, parasite or virus in culture. The assay is classed as cell-based. The conditions noted are these: for Antibiotic MIC: alone, S. enterica T-2a. Here is the method:
as §1

Assay [3] has as its system Escherichia coli T-24a – tet(X4). The assay can be described thus: microbe, parasite or virus in culture. The assay is classed as cell-based. The following applies: for Antibiotic MIC: alone. Here is the method: as §1, with “In brief, assays were set up in a total volume of 100 μL per well and titrations comprised seven 2-fold dilutions of inhibitors and ten 2-fold dilutions of tigecycline in CAMHB.” left out

In assay [4] the test system is Proteus penneri NT6-2 – tet(X6). The assay can be described thus: microbe, parasite or virus in culture. The format is cell-based. The following applies: for Antibiotic MIC: alone, P. penneri NT6-2. Here is the method:
as §1, with “In brief, assays were set up in a total volume of 100 μL per well and titrations comprised seven 2-fold dilutions of inhibitors and ten 2-fold dilutions of tigecycline in CAMHB.” left out

Assay [5] relates to Acinetobacter baumannii NT5-1 – tet(X5). Briefly: microbe, parasite or virus in culture. The format is cell-based. The following applies: for Antibiotic MIC: alone, A. baumannii NT5-1. The protocol:
as §1, with “In brief, assays were set up in a total volume of 100 μL per well and titrations comprised seven 2-fold dilutions of inhibitors and ten 2-fold dilutions of tigecycline in CAMHB.” left out

For assay [6], the system named is E. coli TOP10 containing plasmid pBAD-TOPO-Tet(X4). Briefly: Broth microdilution MIC and checkerboard assay. The format is cell-based, Escherichia coli. The following applies: for Antibiotic MIC / Tet(X) inhibitor MIC: alone; for MIC: Escherichia coli; for Combination (antibiotic/inhibitor) MIC: inhibitor: inhibitor in combination with tigecycline; for Combination (antibiotic/inhibitor) MIC: inhibitor / Combination (antibiotic/inhibitor) MIC: antibiotic: lowest FICI; for Combination (antibiotic/inhibitor) MIC: antibiotic: tigecycline in combination with the inhibitor; for FICI / Outcome: with tigecycline.
From the text: Tet(X4) was sub-cloned from the Tet(X4) pET28b-(+) expression vector via TOPO cloning. The insert was amplified using the taq polymerase with the forward primer 5′- […]-3′ and the reverse primer 5′- […]-3’. Following PCR purification (Thermo Fisher Scientific), the A-tailed PCR product was ligated into the pBAD-TOPO vector using a TOPO cloning kit (Invitrogen) according to the manufacturer's protocol. Following amplification in E. coli NEB5α cells (NEBiolabs), the fidelity of the insert was confirmed by Sanger sequencing (Eurofins). For microbiological experiments, E. coli TOP10 cells were used as the recipient strain. Cells were plated on Mueller-Hinton agar (MHA) plates containing ampicillin at 100 μg mL^−1. The introduction of pBAD-TOPO-Tet(X4) was confirmed by colony PCR. Strains were stored in a freezer at −80 °C in cryopreservation beads.
as §1, with “In brief, assays were set up in a total volume of 100 μL per well and titrations comprised seven 2-fold dilutions of inhibitors and ten 2-fold dilutions of tigecycline in CAMHB.” left out
In general terms: Broth dilution looks for growth in wells or tubes with falling amounts of substance.

The next assay deals with Tet(X4) (Escherichia coli, UniProt A0A3T0V9Y5). Briefly: FP competitive displacement of probe 6. The assay is classed as binding. The following applies: IC50app, 25 nM 6, 40 nM Tet(X4), 5 mM MgCl2, 1 μM FAD, 100 mM Tris pH 7.0, 0.01% Triton X-100. Here is the method: A 2× solution containing 80 nM Tet(X4), 2 μM FAD and 10 mM MgCl2 in the assay buffer was dispensed into the first 22 columns of a 384-well black, non-binding microtiter plate (Greiner Bio-One), 12.5 μL per well, using a microplate reagent dispenser. A solution of 2 μM FAD and 10 mM MgCl2 in the assay buffer was dispensed into the remaining columns to serve as a no enzyme control. A 3-fold, 10-point dilution series of substrates and inhibitors was made in DMSO in a V-bottom 96-well plate (Greiner Bio-One) with a highest concentration of 5 mM or 0.5 mM. Into one column was added DMSO with no inhibitor or substrate, to serve as a positive control. Tigecycline was included as a reference on every plate to ensure reproducibility. 0.5 μL of each dilution was transferred in quadruplicate to the 384-well plate containing enzyme solution using a CyBi-Well liquid-handling robot (CyBio). A solution of 50 nM 6 in the assay buffer was then dispensed, with 12.5 μL per well. The plate was briefly centrifuged (1000 rpm), then incubated at ambient temperature for 30 min prior to measuring the FP. Data points were normalised between the positive and negative controls. Normalised % response was plotted as a function of log10([Inhibitor]), and the IC50^app was determined by fitting the data to the equation: Y = Bottom + (top-bottom)/(1 + 10^Log(IC50) − X) × HillSlope in GraphPad Prism 9.4.1, where Y = % response and X = log10([Inhibitor]). Wells with unusual fluorescence intensities were manually identified and removed from the analysis. […]

[7] abbreviates: inhibitor in combination with tigecycline, lowest FICI.
Where [8] appears, read: tigecycline in combination with the inhibitor, lowest FICI.
[9] abbreviates: induced with 0.2%w/v L-arabinose.

On to `C[C@H]1c2cccc(O)c2C(=O)C2=C(O)[C@]3(O)C(=O)C(C(N)=O)=C(O)[C@@H](N(C)C)[C@@H]3[C@@H](O)[C@@H]21` [Doxycycline], for which the “Antibiotic MIC” value in assay [1] (Acinetobacter spp. NT3-1) is 8 µg/mL; in assay [2], 32 µg/mL; in assay [3] (E. coli T-24a), 32 µg/mL; in assay [4], 16 µg/mL; in assay [5] it was 32 µg/mL; in assay [6] (0.2%w/v L-arabinose (Table S7)), 32 µg/mL. Besides, the “Antibiotic MIC” value in assay [6] (without L-arabinose induction) is 1 µg/mL. The molecule further displayed an IC50 at Tet(X4) (FP assay) of 1580 ± 150 nM.

As for `CN1CCN(CCCN2c3ccccc3Sc3ccc(Cl)cc32)CC1` [Prochlorperazine], the MIC in assay [1] (Acinetobacter, read-out: Tet(X) Inhibitor MIC, alone, Acinetobacter spp. NT3-1) was 8 µg/mL; in assay [2] (Salmonella enterica, read-out: Tet(X) Inhibitor MIC) it was above 128 µg/mL; in assay [3] (Escherichia coli, read-out: Tet(X) Inhibitor MIC, alone, E. coli T-24a), 256 µg/mL; in assay [4] (Proteus penneri, read-out: Tet(X) Inhibitor MIC), above 128 µg/mL; in assay [5] (Acinetobacter baumannii, read-out: Tet(X) Inhibitor MIC), 128 µg/mL; in assay [6] (read-out: Tet(X) Inhibitor MIC, alone, without L-arabinose induction) it was 64 µg/mL. For the same molecule, the “Combination (Antibiotic/Inhibitor) MICs: inhibitor” value in assay [1] (setting [7]) was determined as 8 µg/mL; in assay [2] (setting [7]), 64 µg/mL; in assay [3] (setting [7]), 32 µg/mL; in assay [4] (setting [7]), 128 µg/mL; in assay [5] (setting [7]), 64 µg/mL. For the same molecule, the “Combination (Antibiotic/Inhibitor) MICs: antibiotic” value in assay [1] (setting [8]) came to 4 µg/mL; in assay [2] (setting [8]) it was 16 µg/mL; in assay [3] (setting [8]), 8 µg/mL; in assay [4] (setting [8]) it was 4 µg/mL; in assay [5] (setting [8]), 1 µg/mL. For the same molecule, the FICI in assay [1] (with tigecycline) worked out at 2; in assay [2] (with tigecycline), 1; in assay [3] (with tigecycline), 0.6; in assay [4] (with tigecycline) it was 2; in assay [5] (with tigecycline), 0.6; in assay [6] (0.2%w/v L-arabinose), 0.8. The FICI in assay [6] (0.2%w/v L-arabinose, listed as prochlorperazine) is on record as 0.5-1; in assay [6] (without L-arabinose), 1. Besides, the Outcome result is “indifferent (indifferent (0.5-4.0))” in assay [1] (with tigecycline); “indifferent (indifferent (0.5-4.0))” in assay [2] (with tigecycline); “indifferent (indifferent (0.5-4.0))” in assay [3] (with tigecycline); “indifferent (indifferent (0.5-4.0))” in assay [4] (with tigecycline); “indifferent (indifferent (0.5-4.0))” in assay [5] (with tigecycline); “Indifferent (indifferent (0.5–4.0))” in assay [6] (0.2%w/v L-arabinose). In addition, the Outcome result in assay [6] (without L-arabinose) is recorded as “indifferent (indifferent (0.5-4.0))”. Further, the “Tet(X) inhibitor MIC” value is 64 µg/mL in assay [6] (setting [9]) and 16 to 64 µg/mL in assay [6] (induced with 0.2%w/v L-arabinose, listed as prochlorperazine). Besides, the “reduction of the tigecycline MIC” value in assay [6] (at high concentrations of inhibitor, 0.2%w/v L-arabinose) is given as 2–4 fold. The “Combination (antibiotic/inhibitor) MIC: inhibitor” value stood at 16 µg/mL in assay [6] (0.2%w/v L-arabinose) and 32 µg/mL in assay [6] (without L-arabinose). The figures for the “Combination (antibiotic/inhibitor) MIC: antibiotic” value in assay [6] (0.2%w/v L-arabinose) and in assay [6] (without L-arabinose) were 2 µg/mL and 0.13 µg/mL, respectively.

In the case of `CN(C)c1cc(NC(=O)CNC(C)(C)C)c(O)c2c1C[C@H]1C[C@H]3[C@H](N(C)C)C(O)=C(C(N)=O)C(=O)[C@@]3(O)C(O)=C1C2=O` [Tigecycline], the “Antibiotic MIC” value was determined as 4 µg/mL in assay [1] (Acinetobacter spp. NT3-1); 32 µg/mL in assay [2]; 16 µg/mL in assay [3] (E. coli T-24a); 8 µg/mL in assay [4]; 8 µg/mL in assay [5]; 4 µg/mL in assay [6] (setting [9]). Further, the “Antibiotic MIC” value in assay [6] (without L-arabinose induction) is 0.25 µg/mL. Moreover, the MIC was 0.25 µg/mL in assay [6] (read-out: Tigecycline MIC, L-arabinose 0 %w/v); 0.25 µg/mL in assay [6] (read-out: Tigecycline MIC, L-arabinose 0.0002 %w/v); 0.5 µg/mL in assay [6] (read-out: Tigecycline MIC, L-arabinose 0.002 %w/v); 2 µg/mL in assay [6] (read-out: Tigecycline MIC, L-arabinose 0.02 %w/v); 8 µg/mL in assay [6] (read-out: Tigecycline MIC, L-arabinose 0.2 %w/v); 8 µg/mL in assay [6] (read-out: Tigecycline MIC, L-arabinose 0.4 %w/v). Also, the IC50 at Tet(X4) (FP assay) is 18.6 ± 4.9 nM; on Tet(X4) (Tet(X4) (Polarization)), 22 nM and 19 nM.

One may read the IC50 as the point on the concentration scale where inhibition reaches its midpoint.

(Values after paper PMC12056667 (Chemical Science, 2025).)
